According to patent US10364226B2, “Pyridazinone compounds and uses thereof” (priority 2013, dated 2019):

How the values were obtained:
[1] = tested on: Influenza strain A549 A/WSN/33 (H1N1); test: Influenza Antiviral Assay; type: cell-based, Influenza A virus; conditions: Influenza A virus, A549, 20 h, neuraminidase fluorescence readout, read-out: % Inhibition
EN PA = EN PA (Influenza A virus, UniProt P15659); test: EN PA FRET Inhibition Assay; type: biochemical; conditions: read-out: Potency

Row | Compound | EC50 [1] [µM] | IC50 (EN PA) [µM]
1 | CC(NC(=O)c1nn(CC2(c3cccc(C(F)(F)F)c3)CCCC2)cc(O)c1=O)c1ccccc1 (stereo not drawn) [Compound 637] | < 20 | –
2 | COc1ccc(NC(=O)c2nn(CC3(c4ccccc4)CCCC3)cc(O)c2=O)cc1OC [Compound 705] | > 100 | –
3 | CNC(=O)c1nn(CC2(c3ccc(-c4ccc(OC)nc4)cc3)CCCC2)cc(O)c1=O [Compound 770] | < 20 | –
4 | CNC(=O)c1nn(CC2(c3cccc(-c4cncc(F)c4)c3)CC2)cc(O)c1=O [Compound 727] | > 100 | –
5 | CNC(=O)c1nn(CC2(c3cccc(-c4ccco4)c3)CCCC2)cc(O)c1=O [Compound 745] | < 20 | –
6 | CNC(=O)c1nn(C(Cc2ccccc2)C(=O)Nc2ccccc2)cc(O)c1=O (stereo not drawn) [Compound 668] | > 100 | –
7 | CNC(=O)c1nn(-c2ccccc2Sc2cccc(Cl)c2)cc(O)c1=O [Compound 643] | > 100 | –
8 | O=C(NCc1ccc(F)c(Cl)c1)c1nn(CC2(c3ccc(-c4ccccc4)cc3)CCCC2)cc(O)c1=O [Compound 746] | > 100 | –
9 | CC(C)Oc1ccc(NC(=O)c2nn(CC3(c4ccccc4)CCCC3)cc(O)c2=O)cc1 [Compound 706] | > 100 | –
10 | O=C(Nc1ccc(Cl)cc1Cl)c1nn(CC2(c3ccccc3)CCCC2)cc(O)c1=O [Compound 707] | < 20 | –
11 | CNC(=O)c1nn(CC2(c3cccc(-c4ccn[nH]4)c3)CCCC2)cc(O)c1=O [Compound 767] | < 20 | –
12 | CNC(=O)c1nn(CC2(c3cccc(-c4cnn(C)c4)c3)CCCC2)cc(O)c1=O [Compound 769] | > 100 | –
13 | CNC(=O)c1nn(CC2(c3cccc(-c4cnn(C)c4)c3)CC2)cc(O)c1=O [Compound 748] | > 100 | –
14 | CNC(=O)c1nn(CC2(c3ccc(-c4ccnn4C)cc3)CC2)cc(O)c1=O [Compound 710] | > 100 | –
15 | CNC(=O)c1nn(CC2(c3cccc(Oc4ccccc4)c3)CCCC2)cc(O)c1=O [Compound 725] | < 20 | –
16 | CNC(=O)c1nn(CC2(c3cccc(-c4cncc(F)c4)c3)CCCC2)cc(O)c1=O [Compound 736] | > 100 | –
17 | CNC(=O)c1nn(CC2(c3cccc(-c4ccc(OC)nc4)c3)CCCC2)cc(O)c1=O [Compound 734] | > 100 | –

Row | Compound | EC50 [1] [µM] | IC50 (EN PA) [µM]
18 | CNC(=O)c1nn(CC2(c3cccc(-c4cn[nH]c4)c3)CC2)cc(O)c1=O [Compound 712] | > 100 | –
19 | CNC(=O)c1nn(CC2(c3ccc(-c4ccc5c(c4)OCO5)cc3)CC2)cc(O)c1=O [Compound 737] | < 20 | –
20 | CNC(=O)c1nn(CC2(c3cccc(OC(F)(F)F)c3)CCCC2)cc(O)c1=O [Compound 684] | < 20 | –
21 | Cc1cc(OCC2CC2)cc(-c2ccccc2-n2cc(O)c(=O)c(C(=O)O)n2)c1 [Compound 653] | > 100 | –
22 | O=C(NCc1ccc(F)c(Cl)c1)c1nn(CC2(c3cccc(Oc4ccccc4)c3)CCCC2)cc(O)c1=O [Compound 751] | > 100 | –
23 | Cc1[nH]c2ccc(CNC(=O)c3nn(CC4(c5cccc(C(F)(F)F)c5)CCCC4)cc(O)c3=O)cc2c1C [Compound 672] | < 20 | –
24 | CNC(=O)c1nn(CC2(c3ccc(-c4ccncc4)cc3)CCCC2)cc(O)c1=O [Compound 781] | < 20 | –
25 | CNC(=O)c1nn(CC2(c3cccc(-c4ccnn4C)c3)CCCC2)cc(O)c1=O [Compound 731] | > 100 | –
26 | CNC(=O)c1nn(-c2ccccc2-c2cc(C)cc(OCC3CC3)c2)cc(O)c1=O [Compound 652] | > 100 | –
27 | CNC(=O)c1nn(Cc2cc(C(F)(F)F)ccc2-c2ccccc2)cc(O)c1=O [Compound 689] | > 100 | –
28 | CCc1ccccc1-c1ccccc1-n1cc(O)c(=O)c(C(=O)O)n1 [Compound 34] | – | 0.1 to 1
29 | COc1ccc(CCn2cc(O)c(=O)c(C(=O)O)n2)cc1OC [Compound 417] | – | 0.1 to 1
30 | O=C(O)c1nn(-c2ccccc2-c2ccccc2OC2CCCCC2)cc(O)c1=O [Compound 317] | – | < 0.1
31 | Cn1ccc2ccc(-c3ccccc3-n3cc(O)c(=O)c(C(=O)O)n3)cc21 [Compound 324] | – | 0.1 to 1
32 | COc1ccccc1CCn1cc(O)c(=O)c(C(=O)O)n1 [Compound 413] | – | < 0.1
33 | COc1ccc(CCn2cc(O)c(=O)c(C(=O)O)n2)cc1 [Compound 415] | – | 0.1 to 1
